Measured values from article PMC2213565 (The Journal of General Physiology, 2008).
Like-named read-outs stand apart in the source and are kept apart here.

What was measured:
5-HT3A [1] = target: T1, 5-HT3A (Mus musculus, UniProt P23979); test: Whole cell patch clamp of HEK293T cells transiently expressing 5-HT3A; assay type: cell-based; settings: HEK293T cells expressing 5-HT3A
T1 sequence (P23979 24-489): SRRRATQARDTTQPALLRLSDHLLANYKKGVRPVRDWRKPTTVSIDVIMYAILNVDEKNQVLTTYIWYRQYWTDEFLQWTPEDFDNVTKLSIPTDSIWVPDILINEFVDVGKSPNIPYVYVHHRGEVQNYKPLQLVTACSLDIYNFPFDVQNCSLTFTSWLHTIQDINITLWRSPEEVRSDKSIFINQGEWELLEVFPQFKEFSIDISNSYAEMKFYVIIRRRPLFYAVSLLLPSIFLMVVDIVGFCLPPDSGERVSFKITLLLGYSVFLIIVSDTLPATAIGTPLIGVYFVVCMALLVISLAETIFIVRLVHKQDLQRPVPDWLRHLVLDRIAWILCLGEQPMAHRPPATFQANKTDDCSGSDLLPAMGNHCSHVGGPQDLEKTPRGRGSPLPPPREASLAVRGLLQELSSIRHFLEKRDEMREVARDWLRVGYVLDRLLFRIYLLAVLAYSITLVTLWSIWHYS

5-HT3A-glvM3M4 [2] = target: T2, 5-HT3A-glvM3M4 (Mus musculus, UniProt P23979); test: Whole cell patch clamp of HEK293T cells transiently expressing 5-HT3A-glvM3M4; assay type: cell-based
T2 sequence (P23979 24-326 limits assumed): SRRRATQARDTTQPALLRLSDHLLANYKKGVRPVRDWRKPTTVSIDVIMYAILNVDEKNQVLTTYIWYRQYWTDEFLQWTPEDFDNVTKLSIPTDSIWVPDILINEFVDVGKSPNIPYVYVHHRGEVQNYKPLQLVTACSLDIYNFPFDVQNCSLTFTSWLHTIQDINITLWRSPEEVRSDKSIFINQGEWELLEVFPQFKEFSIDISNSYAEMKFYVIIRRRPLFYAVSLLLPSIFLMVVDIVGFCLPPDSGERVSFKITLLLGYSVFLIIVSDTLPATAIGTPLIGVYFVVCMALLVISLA

5-HT3A [3] = target: T1, 5-HT3A; test: Two-electrode voltage clamp of Xenopus oocytes expressing 5-HT3A wild type; assay type: cell-based
5-HT3A-glvM3M4 [4] = target: 5-HT3A-glvM3M4 (Mus musculus, UniProt P23979); assay type: cell-based
mouse 5-HT3A receptors = settings: competitive antagonist; ref Costall et al., 1987; cited from earlier work

NCCc1c[nH]c2ccc(O)cc12 [5-HT, 5-hydroxytryptamine]
whole cell currents evoked (5-HT3A [1]; 5-HT 1 μM): 1 to 5 nA
whole cell currents evoked (5-HT3A-glvM3M4 [2]; HEK293T cells expressing 5-HT3A-glvM3M4, 5-HT 1 μM): 1 to 5 nA

Cc1cccc(C)c1NC(=O)C[N+](C)(C)C [QX-222]
inhibition of 5-HT EC70 currents (5-HT3A [3]; 5-HT3A-wt, QX-222 20 μM, n = 6): 80 ± 4%
inhibition of 5-HT EC70 currents (5-HT3A-glvM3M4 [4]; 5-HT3A-glvM3M4, QX-222 20 μM, n = 6): 79 ± 2%

COc1ccc([C@@H]2Sc3ccccc3N(CCN(C)C)C(=O)[C@@H]2OC(C)=O)cc1 [diltiazem]
IC50 (5-HT3A [3]): 16 ± 1 µM
IC50 (5-HT3A-glvM3M4 [4]): 12 ± 3 µM

Cc1nccn1CC1CCc2c(c3ccccc3n2C)C1=O (centres unmarked) [ondansetron]
IC50 for inhibition of mouse 5-HT3A receptors (mouse 5-HT3A receptors): high picomolar
inhibition of whole cell currents evoked by 1 μM 5-HT (5-HT3A [1]; 100 nM ondansetron): totally inhibited
inhibition of whole cell currents evoked by 1 μM 5-HT (5-HT3A-glvM3M4 [2]; HEK293T cells expressing 5-HT3A-glvM3M4, 100 nM ondansetron): totally inhibited
inhibition of 5-HT currents (5-HT3A [3]; 5-HT3A, EC30 concentration of 5-HT with ondansetron at 1/3 of the 5-HT concentration, n = 3): 98.2 ± 0.4%
inhibition of 5-HT currents (5-HT3A-glvM3M4 [4]; 5-HT3A-glvM3M4, EC30 concentration of 5-HT with ondansetron at 1/3 of the 5-HT concentration, n = 4): 98.8 ± 0.4%

picrotoxin
IC50 (5-HT3A [3]; read-out: picrotoxin IC50, 5-HT3A-wt, coapplied with 5-HT EC30 concentration, n = 3): 60 ± 10 µM
fold lower IC50 in 5-HT3A-glvM3M4 than in wild type (5-HT3A-glvM3M4 [4]; picrotoxin IC50, 5-HT3A-glvM3M4 versus 5-HT3A-wt): 10 fold
IC50 (5-HT3A-glvM3M4 [4]; read-out: picrotoxin IC50, 5-HT3A-glvM3M4, coapplied with 5-HT EC30 concentration, n = 6): 6.8 ± 1.1 µM
